Measurements published in ChEMBL document CHEMBL1201862, “PubChem BioAssay data set” (2004).
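These data come from cells grown in 96-well plates and exposed to compound for 48 hours at five concentrations. GI50 is the concentration that inhibits growth by half.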 Calls of active or inactive are those of the source. Cut-off read from the data, not from the text of the source: active = GI50 up to about 1.1 µM and inactive = higher.

Columns and labels:
Assay in all cases: inhibition of tumour cell growth, NCI panel, 48 h
LOX IMVI = system: LOX IMVI
UACC-257 = system: UACC-257
SR = system: SR
U-251 = system: U-251
Malme-3M = system: Malme-3M
SNB-75 = system: SNB-75
M14 = system: M14
HCC 2998 = system: HCC 2998
HCT-15 = system: HCT-15
CAKI-1 = system: CAKI-1
HOP-62 = system: HOP-62
MOLT-4 = system: MOLT-4
HCT-116 = system: HCT-116
COLO 205 = system: COLO 205
HOP-18 = system: HOP-18
UO-31 = system: UO-31
RPMI-8226 = system: RPMI-8226

Compound | GI50 (LOX IMVI) | GI50 (UACC-257) | GI50 (SR) | GI50 (U-251) | GI50 (Malme-3M) | GI50 (SNB-75) | GI50 (M14) | GI50 (HCC 2998) | GI50 (HCT-15) [µM] | GI50 (CAKI-1) | GI50 (HOP-62) | GI50 (MOLT-4) | GI50 (HCT-116) | GI50 (COLO 205) | GI50 (HOP-18) | GI50 (UO-31) | GI50 (RPMI-8226)
COC(=O)C(=O)C(C(=O)C=C(C)C)C(=O)C(=O)Nc1ccc(C)cc1C (stereo not drawn) | > 100 µM (inactive) | > 100 µM (inactive) | > 100 µM (inactive) | > 100 µM (inactive) | > 100 µM (inactive) | > 100 µM (inactive) | > 100 µM (inactive) | > 100 µM (inactive) | > 100 | > 100 µM (inactive) | > 100 µM (inactive) | > 100 µM (inactive) | > 100 µM (inactive) | > 100 µM (inactive) | > 100 µM (inactive) | > 100 µM (inactive) | > 100 µM (inactive)
COc1cc2c(oc(=O)c3c4oc([Si](C)(C)C)cc4cc(OC)c23)c2cccc(O)c12 | > 100 µM (inactive) | > 100 µM (inactive) | > 100 µM (inactive) | > 100 µM (inactive) | > 100 µM (inactive) | 36.4 µM (inactive) | > 100 µM (inactive) | > 100 µM (inactive) | > 100 | > 100 µM (inactive) | > 100 µM (inactive) | > 100 µM (inactive) | > 100 µM (inactive) | > 100 µM (inactive) | > 100 µM (inactive) | > 100 µM (inactive) | > 100 µM (inactive)
COc1ccc(C(=O)CC2=Nc3nnc(CCCCCCCc4nnc5n4C(=O)C(CC(=O)c4ccc(OC)cc4)=N5)n3C2=O)cc1 | > 100 µM (inactive) | > 100 µM (inactive) | > 100 µM (inactive) | > 100 µM (inactive) | > 100 µM (inactive) | 31.6 µM (inactive) | > 100 µM (inactive) | > 100 µM (inactive) | > 100 | > 100 µM (inactive) | > 100 µM (inactive) | > 100 µM (inactive) | > 100 µM (inactive) | > 100 µM (inactive) | > 100 µM (inactive) | > 100 µM (inactive) | > 100 µM (inactive)
O=C(Nc1ccccc1[N+](=O)[O-])/C(=N/Nc1cccc(Cl)c1)c1c(O)c2ccccc2oc1=O | > 100 µM (inactive) | 41.2 µM (inactive) | 0.0357 µM (active) |  | 97.9 µM (inactive) | > 100 µM (inactive) | > 100 µM (inactive) | 84.1 µM (inactive) | 58.1 | > 100 µM (inactive) |  | 48 µM (inactive) | 22.9 µM (inactive) | 17.7 µM (inactive) | > 100 µM (inactive) | > 100 µM (inactive) | 
CC/C(=N\NS(=O)(=O)c1ccccc1)c1ccccc1 | > 100 µM (inactive) | > 100 µM (inactive) | > 100 µM (inactive) | > 100 µM (inactive) | > 100 µM (inactive) | > 100 µM (inactive) | > 100 µM (inactive) | > 100 µM (inactive) | > 100 | > 100 µM (inactive) | > 100 µM (inactive) | > 100 µM (inactive) | > 100 µM (inactive) | > 100 µM (inactive) | > 100 µM (inactive) | > 100 µM (inactive) | > 100 µM (inactive)
COc1ccc2[nH]c3c(cnn4cnnc34)c2c1 | > 100 µM (inactive) | > 100 µM (inactive) |  | > 100 µM (inactive) | > 100 µM (inactive) | > 100 µM (inactive) | > 100 µM (inactive) | > 100 µM (inactive) | > 100 | > 100 µM (inactive) | > 100 µM (inactive) | > 100 µM (inactive) |  | > 100 µM (inactive) | > 100 µM (inactive) | > 100 µM (inactive) | > 100 µM (inactive)
COC1CC(OC)C(O)C(CO)O1 (stereo not drawn) | > 100 µM (inactive) | > 100 µM (inactive) | > 100 µM (inactive) | > 100 µM (inactive) | > 100 µM (inactive) | > 100 µM (inactive) | > 100 µM (inactive) | > 100 µM (inactive) | > 100 |  | > 100 µM (inactive) | > 100 µM (inactive) | > 100 µM (inactive) |  | > 100 µM (inactive) | > 100 µM (inactive) | 
COc1nc(NC2OC(COC(C)=O)C(OC(C)=O)C(OC(C)=O)C2OC(C)=O)c2c(OC(C)=O)c(C)c(=O)oc2n1 (stereo not drawn) | > 100 µM (inactive) | > 100 µM (inactive) |  | > 100 µM (inactive) | > 100 µM (inactive) | > 100 µM (inactive) | > 100 µM (inactive) | > 100 µM (inactive) | > 100 | > 100 µM (inactive) | > 100 µM (inactive) | > 100 µM (inactive) | > 100 µM (inactive) | > 100 µM (inactive) | > 100 µM (inactive) | > 100 µM (inactive) | > 100 µM (inactive)
COC(=O)/C=C(\C(=O)OC)c1c2c3c(cc(OC)c(OC)c3c3ccccc13)CCN2C | 49.5 µM (inactive) | 30.5 µM (inactive) | 26.1 µM (inactive) | 39 µM (inactive) | 33.7 µM (inactive) | 66.8 µM (inactive) | 78.7 µM (inactive) | 33.7 µM (inactive) | 22.3 |  | 25.1 µM (inactive) | 24.1 µM (inactive) | 37.4 µM (inactive) | 14.7 µM (inactive) | 64.9 µM (inactive) | 46.2 µM (inactive) | 26.8 µM (inactive)
O=C(Cc1c(C(=O)Nc2ccccc2)sc(C(=O)Nc2ccccc2)c1CC(=O)Nc1ccccc1)Nc1ccccc1 | > 100 µM (inactive) | > 100 µM (inactive) |  | > 100 µM (inactive) | > 100 µM (inactive) | > 100 µM (inactive) | > 100 µM (inactive) | > 100 µM (inactive) |  | > 100 µM (inactive) | > 100 µM (inactive) |  | > 100 µM (inactive) | > 100 µM (inactive) | 68.9 µM (inactive) | > 100 µM (inactive) | > 100 µM (inactive)
COc1cc2[nH]c3c(c2cc1OC)CCN[C@]31CC[C@]2(CC3c4c(cc(OC)c(O)c42)CCN3C)C[C@H]1OC (stereo partly drawn) | 24.3 µM (inactive) | 19.9 µM (inactive) | 15.8 µM (inactive) | 18 µM (inactive) | 21 µM (inactive) | 21.5 µM (inactive) | 15.7 µM (inactive) | 15.2 µM (inactive) | 18.8 | 34.4 µM (inactive) | 21.8 µM (inactive) | 12.9 µM (inactive) | 15.6 µM (inactive) | 13.7 µM (inactive) | 18 µM (inactive) | > 10 µM (inactive) | 15.2 µM (inactive)
CN(C)c1ccc(/C=c2\sc3nnc(-c4ccco4)n3c2=O)cc1 | > 100 µM (inactive) | 16.7 µM (inactive) |  | 57.8 µM (inactive) | > 100 µM (inactive) | 31.6 µM (inactive) | > 100 µM (inactive) | > 100 µM (inactive) |  | > 100 µM (inactive) | > 100 µM (inactive) | > 100 µM (inactive) | > 100 µM (inactive) | > 100 µM (inactive) | > 100 µM (inactive) | > 100 µM (inactive) | > 100 µM (inactive)
O=C1Cc2c([nH]c3ccccc23)-c2cc(Br)ccc2N1 | > 100 µM (inactive) | > 100 µM (inactive) |  | > 100 µM (inactive) | > 100 µM (inactive) | > 100 µM (inactive) | > 100 µM (inactive) | > 100 µM (inactive) | > 100 | > 100 µM (inactive) | > 100 µM (inactive) | > 100 µM (inactive) | > 100 µM (inactive) | > 100 µM (inactive) | > 100 µM (inactive) | > 100 µM (inactive) | > 100 µM (inactive)
CC(/C=C/C(=O)c1sc(C(N)=S)nc1C)=C\c1ccccc1 | 18.2 µM (inactive) | > 100 µM (inactive) | 31.9 µM (inactive) | > 100 µM (inactive) | > 100 µM (inactive) | > 100 µM (inactive) | > 100 µM (inactive) | > 100 µM (inactive) | > 100 | 23.4 µM (inactive) | > 100 µM (inactive) | > 100 µM (inactive) | > 10 µM (inactive) | 54 µM (inactive) | > 100 µM (inactive) | > 100 µM (inactive) | 19.3 µM (inactive)
O=c1[nH]c(=O)n(C2CC(O)C(CO)O2)cc1C(F)(C(F)(F)F)C(F)(F)F (stereo not drawn) | > 100 µM (inactive) | > 100 µM (inactive) | > 100 µM (inactive) | > 100 µM (inactive) | > 100 µM (inactive) | > 100 µM (inactive) | > 100 µM (inactive) |  | > 100 | > 100 µM (inactive) | > 100 µM (inactive) | > 100 µM (inactive) |  | 71 µM (inactive) | 84.5 µM (inactive) | > 100 µM (inactive) | 45.6 µM (inactive)
CC(C)(C)c1cc(C(O)(C(F)(F)F)C(F)(F)F)c2c(c1)C(C(F)(F)F)(C(F)(F)F)OC(C(C)(C)C)N2 (stereo not drawn) |  | 2.81 µM (inactive) | 2.24 µM (inactive) | 3.61 µM (inactive) | 5.31 µM (inactive) | 2.56 µM (inactive) | 5.13 µM (inactive) | 3.88 µM (inactive) | 2.99 | 3.12 µM (inactive) |  | 1.63 µM (inactive) | 1.96 µM (inactive) | 3.3 µM (inactive) | 2.55 µM (inactive) | 7.55 µM (inactive) | 1.95 µM (inactive)
CC(C)CC12CC3CCC(CNC1=O)C32C (stereo not drawn) | > 100 µM (inactive) | > 100 µM (inactive) | 63.7 µM (inactive) | > 100 µM (inactive) | > 100 µM (inactive) | > 100 µM (inactive) | > 100 µM (inactive) | > 100 µM (inactive) |  | > 100 µM (inactive) | > 100 µM (inactive) | 40.5 µM (inactive) | 78.9 µM (inactive) | > 100 µM (inactive) | > 100 µM (inactive) | > 100 µM (inactive) | 49.9 µM (inactive)
